Values joined by “and” are separate entries in the source; they are usually repeats but may differ in a detail not shown here. Equal values may be shown once. Read-outs that look alike come from different tables or passages of the source. Starred links: 1 amine or outer side, 2 acyl side, 3 side chain; linkers in the order of their positions; H or OH if unused. Non-standard residues stand in square brackets, D forms with d. Residues, ends and D or L forms follow the SMILES beside them. Groups on a side chain read outwards from the residue. *: point of attachment. γGlu = O=C(O)[C@H](CCC(=O)[*:2])N[*:1]; αMeF = C[C@](N)(Cc1ccccc1)C(=O)O; αMeK = C[C@](N)(CCCCN)C(=O)O; Lauroyl = CCCCCCCCCCCC(=O)*; αMeS = C[C@](N)(CO)C(=O)O; AEEA = NCCOCCOCC(=O)O; Aib = CC(C)(N)C(=O)O
Columns and labels:
Format in all cases: in vivo
[1] = Rat intraduodenal study, MEDI7219 with new permeation enhancer formulations (Example 7); details: for AUC(0-t) / Cmax / Tmax / half-life: plasma; for half-life: read-out: T ½ (converted)
Protocol: The following rat ID study compared oral bioavailability of the MEDI7219 (SEQ ID NO:2) peptide formulated with new permeation enhancer formulations after intraduodenal administration in rats. All test articles were prepared as solutions in 50 mM Tris, 150 mM mannitol, 0.02% polysorbate 80, pH 8.5. Table 8 gives the formulation and pharmacokinetic analysis details.

[2] = Canine study, Na CDC:PG ratios, PE amount and MEDI7219 dose in enterically coated tablets (Example 22, Table 29); details: Beagle dogs, oral enterically coated tablet
Description: The following materials and methods were used for quantitative measurements of GLP-1 peptide analogs in plasma (e.g., rat or dog plasma) in the Examples below. These methods used a SCIEX 6600 TripleTOF mass spectrometer coupled with a Shimadzu ultra-high performance liquid chromatography (UHPLC). The specificity of the method was ensured by the retention time, the selected mass for Single-Reaction-Monitoring (SRM) mode, and the selected fragment mass in MS/MS (MS^2) mode.
The plasma extraction procedure used the following steps: • Samples, standards, and quality controls were incubated until they reached room temperature. They were then incubated at 60° C. for 2 minutes and cooled down to room temperature, vortexed, and spun down. • 70 μL of samples, standards, or quality controls were transferred into a 1 mL 96-well plate. • In each well, 420 uL of Precipitation Solution was added. The plate was sealed and shook for 10 minutes on a plate shaker at 600 rpm. • The plate was centrifuged at 18G, 2500 RFC, 20° C. for 10 minutes. • The plate was carefully removed, and the upper clear supernatant was extracted with a 200 uL multichannel pipette into a new 96-well protein lobind plate. The supernatant was extracted twice for each well, and the supernatants were combined. • The Plate was placed in TurboVap and the extracted supernatant was dried completely with heated (65° C.) Nitrogen gas at 60 Fahrenheit (Fh). • After the plate was completely dry, the plates were covered and incubated at room temperature for at least 30 minutes until the plate returned back to ambient temperature. • 150 μL of Reconstitution solution was added to each well. The plate was covered with a pierceable place seal and shaken at 600 rpm for 10 minutes. • The samples were submitted to the LC-MS/MS on the same day of Preparation
Quantification of the data obtained using the high resolution SCIEX 6600 instrument was then performed as follows: • For the quantification, extracted ion chromatograms (XIC) using 0.2 Da m/z extraction window centered on the accurate mass of each fragment ion were generated. Accurate mass was calculated from the structure of the compound. […] Concentrations of the target analyte in unknown samples were obtained by regression analysis using linear fits of peak areas vs. analyte concentration, weighted 1/(concentration). • The quality of the assay was controlled by the quality control samples. • Either Experiment 1 or Experiment 2 could be used for the quantification of the GLP-1 peptide analogs in high resolution mode.

[3] = Canine study, MEDI7219 enterically coated tablets with or without Tris base, fresh or stressed (Example 19, Table 26); details: beagle, dog, plasma, po, Beagle dogs
Description: The objective was to study influence of MEDI7219 (SEQ ID NO:2) enterically coated tablet formulation composition with or without Tris base on bioperformance Study design and outcomes are provided in Table 26.

[4] = Canine study, MEDI7219 enterically coated tablets, enhancer ratios, amounts and peptide doses (Example 15)
Protocol: The next canine study (Table 22) was executed to confirm the performance of the formulation from the previous study (Example 14, Group 2 formulation, Table 21) at 1, 3 and 10 mg MEDI7219 (SEQ ID NO:2) peptide doses. The second goal was to explore the influence of formulation compositions designed around the Group 2 formulation with varying ratios and amounts of permeation enhancers in an enterically-coated tablet form on bioavailability and pharmacokinetic variability. The following formulation variables were tested: sodium chenodeoxycholate:propyl gallate ratios of 1:1, 1:2, and 1:3; 150, 300 and 450 mg of permeation enhancers at a 1:2 ratio; and 1, 3 and 10 mg peptide doses. All tablets were enterically coated with Eudragit formula dissolving at pH 5.5 and above.

[5] = iv, 0.01 mg/kg, IV, 0.01 mg/kg, Group 1 control, 0.01 mg/mL peptide
[6] = other: intraduodenal (ID), 1 mg/kg, ID, 1 mg/kg, Group 2: 0.5 mg/mL peptide, 25 mg/mL Na CDC, 12.5 mg/mL Ethyl Gallate
[7] = other: intraduodenal (ID), 1 mg/kg, ID, 1 mg/kg, Group 3: 0.5 mg/mL peptide, 12.5 mg/mL Na CDC, 25 mg/mL Ethyl Gallate
[8] = other: intraduodenal (ID), 1 mg/kg, ID, 1 mg/kg, Group 4: 0.5 mg/mL peptide, 25 mg/mL Na CDC, 12.5 mg/mL Octyl Gallate
[9] = other: intraduodenal (ID), 1 mg/kg, ID, 1 mg/kg, Group 5: 0.5 mg/mL peptide, 25 mg/mL Chenodeoxycholic acid, 12.5 mg/mL PG
[10] = other: intraduodenal (ID), 1 mg/kg, ID, 1 mg/kg, Group 8: 0.5 mg/mL peptide, 25 mg/mL Na CDC, 12.5 mg/mL PG

CCCCCCCCCCCC(=O)N[C@@H](CCC(=O)NCCOCCOCC(=O)NCCOCCOCC(=O)NCCCC[C@H](NC(=O)[C@H](C)NC(=O)[C@@H](NC(=O)[C@](C)(Cc1ccccc1)NC(=O)[C@H](CCC(=O)O)NC(=O)[C@](C)(CCCCN)NC(=O)[C@H](C)NC(=O)[C@H](C)NC(=O)[C@H](CCC(=O)O)NC(=O)CNC(=O)[C@H](CCC(=O)O)NC(=O)[C@H](CC(C)C)NC(=O)[C@H](CCCCNC(=O)COCCOCCNC(=O)COCCOCCNC(=O)CC[C@H](NC(=O)CCCCCCCCCCC)C(=O)O)NC(=O)[C@H](CO)NC(=O)[C@](C)(CO)NC(=O)[C@@H](NC(=O)[C@H](CC(=O)O)NC(=O)[C@H](CO)NC(=O)[C@@H](NC(=O)[C@](C)(Cc1ccccc1)NC(=O)[C@H](CO)NC(=O)CNC(=O)[C@H](CCC(=O)O)NC(=O)C(C)(C)NC(=O)[C@@H](N)Cc1c[nH]cn1)[C@@H](C)O)C(C)C)[C@@H](C)CC)C(=O)N[C@H](C(=O)N[C@H](C(=O)N[C@@H](CCC(=O)O)C(=O)NCC(=O)NCC(N)=O)C(C)C)C(C)C)C(=O)O [MEDI7219, Free-H-[AIB]-EGS-[αMePhe]-TSDV-[αMeSer]-SK[(PEG2)2-γE-Lauroyl]-LEGEAA-[αMeLys]-E-[αMePhe]-IAK[(PEG2)2-γE-Lauroyl]-VVEGG-amide] (H-H[Aib]EGS[αMeF]TSDV[αMeS]SK([AEEA-AEEA-γGlu-Lauroyl])LEGEAA[αMeK]E[αMeF]IAK([AEEA-AEEA-γGlu-Lauroyl])VVEGG-NH2)
F ([1]; ID, 1 mg/kg, Group 2: 0.5 mg/mL peptide, 25 mg/mL Na CDC, 12.5 mg/mL Ethyl Gallate): 1.11%
F ([1]; ID, 1 mg/kg, Group 3: 0.5 mg/mL peptide, 12.5 mg/mL Na CDC, 25 mg/mL Ethyl Gallate): 2.14%
F ([1]; ID, 1 mg/kg, Group 4: 0.5 mg/mL peptide, 25 mg/mL Na CDC, 12.5 mg/mL Octyl Gallate): 1.12%
F ([1]; ID, 1 mg/kg, Group 5: 0.5 mg/mL peptide, 25 mg/mL Chenodeoxycholic acid, 12.5 mg/mL PG, 1 mg/kg): 1.96% and 1.92%
F ([1]; ID, 1 mg/kg, Group 6: 0.5 mg/mL peptide, 25 mg/mL Ursodeoxycholic acid, 12.5 mg/mL PG): 0%
F ([1]; ID, 1 mg/kg, Group 7: 0.5 mg/mL peptide, 25 mg/mL Na CDC, 12.5 mg/mL PG, 25 mg/mL N-Acetyl Cysteine): 0%
F ([1]; ID, 1 mg/kg, Group 8: 0.5 mg/mL peptide, 25 mg/mL Na CDC, 12.5 mg/mL PG): 1.45%
F ([1]; IV, 0.01 mg/kg, Group 1 control, 0.01 mg/mL peptide): 100%
AUC(0-t) [1, 5]: 1030 ng·h/mL
Cmax [1, 5]: 187 ng/mL
Tmax [1, 5]: 0.083 h
half-life [1, 5]: 8.9 h
AUC(0-t) [1, 6]: 1110 ng·h/mL
Cmax [1, 6]: 175 ng/mL
Tmax [1, 6]: 0.25 h
half-life [1, 6]: 10.3 h
AUC(0-t) [1, 7]: 1970 ng·h/mL
Cmax [1, 7]: 282 ng/mL
Tmax [1, 7]: 0.25 h
half-life [1, 7]: 7.96 h
AUC(0-t) [1, 8]: 1170 ng·h/mL
Cmax [1, 8]: 240 ng/mL
Tmax [1, 8]: 0.25 h
half-life [1, 8]: 7.97 h
AUC(0-t) [1, 9]: 1890 ng·h/mL
Cmax [1, 9]: 546 ng/mL
Tmax [1, 9]: 0.25 h
half-life [1, 9]: 8.6 h
AUC(0-t) [1, 10]: 1540 ng·h/mL
Cmax [1, 10]: 140 ng/mL
Tmax [1, 10]: 2 h
half-life [1, 10]: 8.83 h
F ([2]; 150 mg Na CDC and no PG): ~2%
F ([2]; 150 mg PE, 1:2 Na CDC:PG ratio): ~6%
F ([2]; 150 mg PE, 2:1 Na CDC:PG ratio): ~7%
F ([2]; 6.5:1 Na CDC:PG ratio (130 mg Na CDC, 20 mg PG)): ~4%
bioavailability ([3]; 3 mg/dog, freshly prepared enterically coated no Tris tablet): 5.2%
bioavailability ([3]; 3 mg/dog, freshly prepared enterically coated tablets with Tris): 12.4%
bioavailability ([3]; stressed enterically coated tablet with Tris): 3.8%
bioavailability ([3]; stressed enterically coated tablet without Tris): 9.6%
F ([4]; Intravenous, 0.05 mg/kg): 100%
F ([4]; Oral tablet, Group 10: 1 mg peptide, 100 mg Na CDC, 200 mg PG): 1.11%
F ([4]; Oral tablet, Group 11: 1 mg peptide, 100 mg Na CDC, 200 mg PG): 4.78%
F ([4]; Oral, Group 2 Enterically Coated tablet: 3 mg peptide, 100 mg Na CDC, 200 mg PG): 15.5%
F ([4]; Oral, Group 3 Enterically Coated tablet: 10 mg peptide, 100 mg Na CDC, 200 mg PG): 7.5%
F ([4]; Oral, Group 4 Enterically Coated tablet: 3 mg peptide, 75 mg Na CDC, 225 mg PG): 7.52%
F ([4]; Oral, Group 5 Enterically Coated tablet: 3 mg peptide, 50 mg Na CDC, 100 mg PG): 11.1%
F ([4]; Oral, Group 6 Enterically Coated tablet: 10 mg peptide, 50 mg Na CDC, 100 mg PG): 13.5%
F ([4]; Oral, Group 7 Enterically Coated tablet: 3 mg peptide, 150 mg Na CDC, 300 mg PG): 7.53%
F ([4]; Oral, Group 8 Enterically Coated tablet: 3 mg peptide, 150 mg Na CDC, 150 mg PG): 6.62%
F ([4]; Oral, Group 9 Enterically Coated tablet: 1 mg peptide, 100 mg Na CDC, 200 mg PG): > 4% and 4.2%
